Assay results taken from US12479843B2, “Spiro ring-containing quinazoline compounds” (WIGEN BIOMEDICINE TECHNOLOGY (SHANGHAI) CO., LTD., priority 2019, dated 2025).

Key:
pERK level in H358 cells = test: pERK and ERK protein content assay in H358 cells (ELISA); assay type: cell-based; conditions: Homo sapiens, NCI-H358, compound 1 μM, 24 h, pERK/ERK ratio compared with DMSO group, read-out: Inhibition rate (%) of pERK level
Procedure, shortened: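 Percent inhibition of pERK relative to DMSO, from the ELISA pERK/ERK ratio in lysed H358 cells. Compound applied at 1 μM for 24 h after one day of growth.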

H358 cells = test: Antiproliferative activity against H358 cells (Cell Titer Glow, ultra-low attachment plate); assay type: cell-based; conditions: Homo sapiens, NCI-H358, 72 h, 96-well ultra-low attachment plate, three days after addition of compound, Cell Titer Glow
Description: 2500 H358 cells were seeded in a 96-well ultra-low attachment plate (corning, 7007). After one day of growth, a serially diluted compound (a maximum concentration of 5 μM, 5-fold dilution, a total of five doses) was added. Three days after the addition of the compound, Cell Titer Glow (Promega, G9681) was added to evaluate pellet growth, and the IC50 value was calculated.

SMILES	inhibition at 1 µM (pERK level in H358 cells)	IC50 (H358 cells)
C=CC(=O)N1CC2(CCN(c3nc(N4CC[C@H](N5CCC(F)CC5)C4)nc4c(OCC(F)(F)F)c(-c5c(C)ccc6[nH]ncc56)c(C5CC5)cc34)CC2)C1 [Compound 211]	> 90%	< 300 nM
C=CC(=O)N1CC2(CCN(c3nc(N4CC[C@@H](N5CCC(F)CC5)C4)nc4c(OCC(F)(F)F)c(-c5c(C)ccc6[nH]ncc56)c(C5CC5)cc34)CC2)C1 [Compound 212]	> 90%	< 300 nM
C=CC(=O)N1CC2(CCN(c3nc(N4CC[C@H](N5CCC(OC)CC5)C4)nc4c(OCC(F)(F)F)c(-c5c(C)ccc6[nH]ncc56)c(C5CC5)cc34)CC2)C1 [Compound 213]	50 to 90%	300 to 1000 nM
C=CC(=O)N1CC2(CCN(c3nc(N4CC[C@@H](N5CCC(OC)CC5)C4)nc4c(OCC(F)(F)F)c(-c5c(C)ccc6[nH]ncc56)c(C5CC5)cc34)CC2)C1 [Compound 214]	50 to 90%	300 to 1000 nM
C=CC(=O)N1CC2(CCN(c3nc(N4CCC(N5CCC5)CC4)nc4c(OCC(F)(F)F)c(-c5c(C)ccc6[nH]ncc56)c(C5CC5)cc34)CC2)C1 [Compound 215]	> 90%	< 300 nM
C=CC(=O)N1CC2(CCN(c3nc(N4CCC(N5CCCC5)CC4)nc4c(OCC(F)(F)F)c(-c5c(C)ccc6[nH]ncc56)c(C5CC5)cc34)CC2)C1 [Compound 216]	> 90%	< 300 nM
C=CC(=O)N1CC2(CCN(c3nc(N4CC(N5CCC5)C4)nc4c(OCC(F)(F)F)c(-c5c(C)c(C)cc6[nH]ncc56)c(C5CC5)cc34)CC2)C1 [Compound 217]	> 90%	< 300 nM
C=CC(=O)N1CC2(CCN(c3nc(N4CC(N5CCCC5)C4)nc4c(OCC(F)(F)F)c(-c5c(C)c(C)cc6[nH]ncc56)c(C5CC5)cc34)CC2)C1 [Compound 218]	> 90%	< 300 nM
C=CC(=O)N1CC2(CCN(c3nc(N4CC(N5CCC5)C4)nc4c(OCC(F)(F)F)c(-c5c(C)c(F)cc6[nH]ncc56)c(C5CC5)cc34)CC2)C1 [Compound 219]	> 90%	< 300 nM
C=CC(=O)N1CC2(CCN(c3nc(N4CC(N5CCCC5)C4)nc4c(OCC(F)(F)F)c(-c5c(C)c(F)cc6[nH]ncc56)c(C5CC5)cc34)CC2)C1 [Compound 220]	> 90%	< 300 nM
C=CC(=O)N1CC2(CCN(c3nc(N4CC(N5CCC5)C4)nc4c(OCC(F)(F)F)c(-c5c(C)c(C)cc6[nH]ncc56)c(C=C)cc34)CC2)C1 [Compound 221]	> 90%	< 300 nM
C=CC(=O)N1CC2(CCN(c3nc(N4CC(N5CCCC5)C4)nc4c(OCC(F)(F)F)c(-c5c(C)c(C)cc6[nH]ncc56)c(C=C)cc34)CC2)C1 [Compound 222]	> 90%	< 300 nM
C=CC(=O)N1CC2(CCN(c3nc(N4CC(N5CCC5)C4)nc4c(OCC(F)(F)F)c(-c5c(C)c(F)cc6[nH]ncc56)c(C=C)cc34)CC2)C1 [Compound 223]	> 90%	< 300 nM
C=CC(=O)N1CC2(CCN(c3nc(N4CC(N5CCCC5)C4)nc4c(OCC(F)(F)F)c(-c5c(C)c(F)cc6[nH]ncc56)c(C=C)cc34)CC2)C1 [Compound 224]	> 90%	< 300 nM
C=CC(=O)N1CC2(CCN(c3nc(N(C)CCN(C)C)nc4c(OCC(F)(F)F)c(-c5c(C)ccc6[nH]ncc56)c(C5CC5)cc34)CC2)C1 [Compound 225]	> 90%	< 300 nM
C=CC(=O)N1CC2(CCN(c3nc(N(C)CCN4CCC4)nc4c(OCC(F)(F)F)c(-c5c(C)ccc6[nH]ncc56)c(C5CC5)cc34)CC2)C1 [Compound 226]	> 90%	< 300 nM
C=CC(=O)N1CC2(CCN(c3nc(N(C)CCN4CC(C)C4)nc4c(OCC(F)(F)F)c(-c5c(C)ccc6[nH]ncc56)c(C5CC5)cc34)CC2)C1 [Compound 227]	> 90%	< 300 nM
C=CC(=O)N1CC2(CCN(c3nc(N(C)CCN4CC(F)C4)nc4c(OCC(F)(F)F)c(-c5c(C)ccc6[nH]ncc56)c(C5CC5)cc34)CC2)C1 [Compound 228]	> 90%	< 300 nM
C=CC(=O)N1CC2(CCN(c3nc(N(C)CCN4CC(O)C4)nc4c(OCC(F)(F)F)c(-c5c(C)ccc6[nH]ncc56)c(C5CC5)cc34)CC2)C1 [Compound 229]	> 90%	< 300 nM

SMILES	inhibition at 1 µM (pERK level in H358 cells)	IC50 (H358 cells)
C=CC(=O)N1CC2(CCN(c3nc(N(C)CCN4CC(OC)C4)nc4c(OCC(F)(F)F)c(-c5c(C)ccc6[nH]ncc56)c(C5CC5)cc34)CC2)C1 [Compound 230]	50 to 90%	300 to 1000 nM
C=CC(=O)N1CC2(CCN(c3nc(N(C)CCN4CC(C#N)C4)nc4c(OCC(F)(F)F)c(-c5c(C)ccc6[nH]ncc56)c(C5CC5)cc34)CC2)C1 [Compound 231]	50 to 90%	300 to 1000 nM
C=CC(=O)N1CC2(CCN(c3nc(N(C)CCN4CCCC4)nc4c(OCC(F)(F)F)c(-c5c(C)ccc6[nH]ncc56)c(C5CC5)cc34)CC2)C1 [Compound 232]	> 90%	< 300 nM
C=CC(=O)N1CC2(CCN(c3nc(N(C)CCN4CC[C@H](C)C4)nc4c(OCC(F)(F)F)c(-c5c(C)ccc6[nH]ncc56)c(C5CC5)cc34)CC2)C1 [Compound 233]	> 90%	< 300 nM
C=CC(=O)N1CC2(CCN(c3nc(N(C)CCN4CC[C@H](O)C4)nc4c(OCC(F)(F)F)c(-c5c(C)ccc6[nH]ncc56)c(C5CC5)cc34)CC2)C1 [Compound 234]	> 90%	< 300 nM
C=CC(=O)N1CC2(CCN(c3nc(N(C)CCN4CC[C@H](OC)C4)nc4c(OCC(F)(F)F)c(-c5c(C)ccc6[nH]ncc56)c(C5CC5)cc34)CC2)C1 [Compound 235]	> 90%	< 300 nM
C=CC(=O)N1CC2(CCN(c3nc(N(C)CCN4CC[C@H](F)C4)nc4c(OCC(F)(F)F)c(-c5c(C)ccc6[nH]ncc56)c(C5CC5)cc34)CC2)C1 [Compound 236]	> 90%	< 300 nM
C=CC(=O)N1CC2(CCN(c3nc(N4CC(N5CC(C)C5)C4)nc4c(OCC(F)(F)F)c(-c5c(C)ccc6[nH]ncc56)c(C5CC5)cc34)CC2)C1 [Compound 237]	> 90%	< 300 nM
C=CC(=O)N1CC2(CCN(c3nc(N4CC(N5CC(C#N)C5)C4)nc4c(OCC(F)(F)F)c(-c5c(C)ccc6[nH]ncc56)c(C5CC5)cc34)CC2)C1 [Compound 238]	> 90%	300 to 1000 nM
C=CC(=O)N1CC2(CCN(c3nc(N4CC(N5CC(OCC(F)(F)F)C5)C4)nc4c(OCC(F)(F)F)c(-c5c(C)ccc6[nH]ncc56)c(C5CC5)cc34)CC2)C1 [Compound 239]	50 to 90%	300 to 1000 nM
C=CC(=O)N1CC2(CCN(c3nc(N4CC(N5CC(C)(O)C5)C4)nc4c(OCC(F)(F)F)c(-c5c(C)ccc6[nH]ncc56)c(C5CC5)cc34)CC2)C1 [Compound 240]	> 90%	< 300 nM
C=CC(=O)N1CC2(CCN(c3nc(N4CC(N5CC(S(C)(=O)=O)C5)C4)nc4c(OCC(F)(F)F)c(-c5c(C)ccc6[nH]ncc56)c(C5CC5)cc34)CC2)C1 [Compound 241]	50 to 90%	300 to 1000 nM
C=CC(=O)N1CC2(CCN(c3nc(N4CC(N5CC(CC#N)C5)C4)nc4c(OCC(F)(F)F)c(-c5c(C)ccc6[nH]ncc56)c(C5CC5)cc34)CC2)C1 [Compound 242]	> 90%	< 300 nM
C=CC(=O)N1CC2(CCN(c3nc(N4CC(N5CC(CO)C5)C4)nc4c(OCC(F)(F)F)c(-c5c(C)ccc6[nH]ncc56)c(C5CC5)cc34)CC2)C1 [Compound 243]	> 90%	< 300 nM
C=CC(=O)N1CC2(CCN(c3nc(N4CC(N5CC(N(C)C)C5)C4)nc4c(OCC(F)(F)F)c(-c5c(C)ccc6[nH]ncc56)c(C5CC5)cc34)CC2)C1 [Compound 244]	> 90%	< 300 nM
C=CC(=O)N1CC2(CCN(c3nc(N4CC(N5CCC[C@H]5C)C4)nc4c(OCC(F)(F)F)c(-c5c(C)ccc6[nH]ncc56)c(C5CC5)cc34)CC2)C1 [Compound 245]	> 90%	< 300 nM
C=CC(=O)N1CC2(CCN(c3nc(N4CC(N5CCC[C@@H]5C)C4)nc4c(OCC(F)(F)F)c(-c5c(C)ccc6[nH]ncc56)c(C5CC5)cc34)CC2)C1 [Compound 246]	> 90%	< 300 nM
C=CC(=O)N1CC2(CCN(c3nc(N4CC(N5CC[C@H](C)C5)C4)nc4c(OCC(F)(F)F)c(-c5c(C)ccc6[nH]ncc56)c(C5CC5)cc34)CC2)C1 [Compound 247]	> 90%	< 300 nM
